From patent US12162869B2, “Type II crystalline topramezone sodium salt hydrate, preparation method therefor and use thereof” (Rotam Agrochem International Company Limited, priority 2022, dated 2024)

What was measured:
[1] = aqueous preparation; reported in US 2010075853 A; cited from earlier work
[2] = Heat storage experiment of the preparation product; format: physicochemical
Method: In the preparation of solid preparations containing topramezone, the crystalline form I of the topramezone sodium salt can be better granulated compared with the anhydrous substance of the topramezone sodium salt. […] However, the preparation of type I topramezone sodium salt hydrate requires standing in water or a water-containing mixed solvent at −10° C.-15° C. for 10-48 h to complete the crystallization.

[3] = Product performance comparison: storage of preparation samples at 54° C. for 2 weeks; format: physicochemical; settings: stored at 54° C. for 2 weeks; characters before and after storage compared
Method: The preparation samples 1, 2, 3, 4, 5, 6, 7, 8, 9, 10, 11 and 12 prepared in Application examples 1-4 are stored at 54° C. for 2 weeks, respectively. The character changes of each sample before and after storage are compared.

In the case of `Cc1c(C(=O)c2cnn(C)c2[O-])ccc(S(C)(=O)=O)c1C1=NOCC1.[Na+]` [topramezone sodium salt], the “Activity compared with topramezone acid” value [1] is given as “equivalent to or even higher than that of topramezone acid”.
For `Cc1c(C(=O)c2cnn(C)c2[O-])ccc(S(C)(=O)=O)c1C1=NOCC1.Cc1c(C(=O)c2cnn(C)c2[O-])ccc(S(C)(=O)=O)c1C1=NOCC1.O.O.O.O.O.[Na+].[Na+]` [type I topramezone sodium salt hydrate, 2.5 water topramezone sodium salt hydrate], the “Stability of the preparation in heat storage, compared with the preparation based on the anhydrous substance” value [2] was “more stable”.
In the case of “type II crystalline topramezone sodium salt hydrate”, the Character changes [3] is reported as “stable after storage”.
